Data set [1] deals with Okra (Abelmoschus esculentum L). Nature of the data set: Phytotoxicity / crop safety on Okra in the field trial. The format is in vivo. The note with it: both application rates, 4 ml & 5 ml/lit of water. The procedure: (§1) Field trials were conducted to study the effect of the combination of Denatonium benzoate with insecticides. The following three combinations were tested on the control of Jassids species Amrasca bigutula bigutula in the crop of infected Okra (Abelmoschus esculentum L) over the use of insecticides alone. • Denatonium benzoate+Flonicamid • Denatonium benzoate+Thiamethoxam • Denatonium benzoate+Imidacloprid
(§2) Both phytotoxicity and percentage control of the Jassids was measured.
The safety of Denatonium Benzoate (DB) combinations according to present invention on Okra was evaluated. It is observed that the DB combinations according to the present invention are safe and no Phytotoxicity is observed.

For data set [2] the following is noted: in vivo; cited from earlier work.
The conditions of data set [3]: cited from earlier work.
Data set [4] has as its system Amrasca bigutula bigutula. The experiment in a line: Field trial: control of Jassids in infected Okra. The note with it: Denatonium Benzoate alone. In kind it is in vivo. The procedure:
as §1, §2
T-1, T-2 and T-3 are the treatment with insecticidal combinations according to the present invention; T-4, T-5 and T-6 are the treatment with insecticides alone; T-7 and T-8 are the treatment with Denatonium benzoate (DB) liquid solutions alone and T-9 is the control.
Bio-efficacy of insecticidal combinations of the present invention against Jassids in infected Okra were evaluated. The percentage control of Jassids was measured. Efficacy was evaluated as: Excellent 91-100%, Very good 81-90%, Good 71-80%, Moderate 51-70%, Poor<50%.

“Also recorded” adds a separate entry of the source.

These results are taken from patent US20220046919A1, “SYNERGISTIC INSECTICIDAL COMBINATIONS” (UPL LTD, priority 2019, published 2022).

In the case of `CC[N+](CC)(CC(=O)Nc1c(C)cccc1C)Cc1ccccc1.O=C([O-])c1ccccc1` [Denatonium benzoate, phenylmethyl-[2-[(2,6-dimethylphenyl)amino]-2-oxoethyl]-diethylammonium benzoate], in data set [1], the “Selectivity: crop safety on okra” value is recorded as “Good crop safety”. In data set [2], the “human safety in clinical trials” value is “extremely human safe”. Further, the “concentration with generally recognized bitter taste” value in data set [3] (in vivo) is on record as 50 ppb. In addition, the “concentration detected by the average person” value in data set [3] (taste detection) is given as 10 ppb. Further, the “control of Jassids / insecticidal activity, in words” value in data set [4] is “no significant control of Jassids; also recorded: does not exhibit any insecticidal activity”.
